{"source": "patent US9308238B2", "about": "“Compositions and methods for modulating EMT and uses thereof” (Whitehead Institute for Biomedical Research, priority 2010, dated 2016)", "tested_on": "RAS-transformed HMLE cells", "experiment": "Lung metastasis of RAS-transformed treated HMLE cells from mammary fat pads", "type": "in vivo", "settings": "cells implanted into mammary fat pads of mice", "description": "FIGS. 5A-5H. Concomitant stimulation of Wnt and TGF-beta pathways allows HMLE^24+ cells to enter into a mesenchymal and SC-like state. (FIG. 5A) RT-PCR: N-Cadherin, Zeb1 and Zeb2, L32 was loading control, n=3. Prior RNA isolation, HMLE^24+-shGFP or -shSFRP1 (stable knockdown of SFRP1, FIG. 12A) cells were treated for 3 days with daily doses of indicated factors: anti-DKK1 antibody (10 μg/ml), anti-E-Cadherin antibody (1 μg/ml), TGF-beta 1 (5 ng/ml), Wnt5a (250 ng/ml), (FIG. 5B) Brightfield microscopy: images of control, TGF-beta- and iEMT-cocktail treated HMLE^24+ cells after 14 days of treatment as indicated (see also FIG. 12D). (FIG. 5C) RT-PCR: Zeb1, Zeb2, E-Cadherin and N-Cadherin, L32 was loading control, n=3. After 14 day treatment, cells were expanded in absence of further stimulation for 4 passages. […] (FIG. 5G) Lung metastasis: cells expanded for 8 passages after cessation of treatment as described in (C) were transformed with RAS; 1.0×10^5 cells were injected into the mammary fat pads of mice; GFP-labeled metastases on the surface of the lungs were quantified; *control vs. all other groups, p<0.05, n=5 mice/group. […]\nAnimal studies. […] Lung surface metastases were counted using a fluorescent microscope within 3 hr of specimen isolation."}
{"substance": "TGF-beta 1: recombinant TGF-beta 1 protein, used at 5 ng/ml", "values": [{"measurement": "lung metastatic foci of RAS-transformed treated cells", "value": "only weakly metastatic"}]}
